Measured values: paper PMC6316200, “Ceratinadins E and F, New Bromotyrosine Alkaloids from an Okinawan Marine Sponge Pseudoceratina sp” (Marine Drugs, 2018)
≈ marks a conversion by molar mass, not a printed value. Like-named read-outs stand apart in the source and are kept apart here.

Columns and labels:
[1] = tested on: Plasmodium falciparum K1 strain; test: Antimalarial activity in vitro against drug-resistant P. falciparum K1 strain; assay type: cell-based; conditions: for IC50: Plasmodium falciparum; for Selectivity Index MRC-5/K1: ratio of IC50 MRC-5 to IC50 K1
Source text: (§1) The antimalarial activities of psammaplysin F (3), ceratinadin E (1), and ceratinadin F (2) against a drug-resistant and a drug-sensitive strains of Plasmodium falciparum (K1 and FCR3 strains, respectively) were examined, see Table 2 [16].

[2] = tested on: Plasmodium falciparum FCR3 strain; test: Antimalarial activity in vitro against drug-sensitive P. falciparum FCR3 strain; assay type: cell-based; conditions: for IC50: Plasmodium falciparum; for Selectivity Index MRC-5/FCR3: ratio of IC50 MRC-5 to IC50 FCR3
Source text: as §1

[3] = Cytotoxicity against MRC-5 cells; assay type: cell-based, human
[4] = tested on: MRC-5 (normal human embryonic lung fibroblast); test: Cytotoxicity against MRC-5 cells; assay type: cell-based
[5] = drug-resistant P. falciparum strain K1, in vitro, read-out: Antimalarial Activity K1, IC50
[6] = drug-sensitive P. falciparum strain FCR3, in vitro, read-out: Antimalarial Activity FCR3, IC50
[7] = human, MRC-5 cells (normal human embryonic lung fibroblasts)

For `C[C@@H]1CC[C@H]2[C@@H](C)C(=O)O[C@@H]3O[C@@]4(C)CC[C@@H]1[C@]32OO4` [Artemisinin, reference compound], the IC50 [1, 5] was 0.01 µg/mL (≈ 0.0354 µM), the “Selectivity Index MRC-5/K1” value [1] was greater than 1412 and the IC50 [2, 6] was 0.0088 µg/mL (≈ 0.0312 µM). For the same compound, the “Selectivity Index MRC-5/FCR3” value [2] was greater than 1604.5 and the IC50 [3, 7] was greater than 14.1 µg/mL.

With `CNCCc1cc(Br)c(OCCCNC(=O)N(C)CCc2cc(Br)c(OCCCNC(=O)C3=NO[C@]4(CC(Br)=C(OC)C(Br)=CO4)[C@@H]3O)c(Br)c2)c(Br)c1` [Ceratinadin E (1), ceratinadin E] the IC50 [1, 5] was 1.03 µg/mL (≈ 0.904 µM), the “Selectivity Index MRC-5/K1” value [1] was 15.5 and the IC50 [2, 6] was 0.77 µg/mL (≈ 0.676 µM). For the same compound, the “Selectivity Index MRC-5/FCR3” value [2] was 20.8 and the IC50 [3, 7] was 16 µg/mL (≈ 14 µM).

For `CNCCc1cc(Br)c(OCCCNC(=O)N(C)CCc2cc(Br)c(OCCCNC(=O)N(C)CCc3cc(Br)c(OCCCNC(=O)C4=NO[C@]5(CC(Br)=C(OC)C(Br)=CO5)[C@@H]4O)c(Br)c3)c(Br)c2)c(Br)c1` [Ceratinadin F (2), ceratinadin F], the “antimalarial activity (in words)” value ([1]; P. falciparum in vitro, strain not named, only K1 examined for this compound) was “did not show significant antimalarial activity”, the IC50 [1, 5] was greater than 12.5 µg/mL and the “Selectivity Index MRC-5/K1” value [1] was greater than 4. The IC50 [3, 7] was greater than 50 µg/mL.

Compound `CCN(CC)CCCC(C)Nc1ccnc2cc(Cl)ccc12` (centres unmarked) [Chloroquine, reference compound] has an IC50 ([1]; K1, read-out: Antimalarial Activity K1, IC50) of 0.34 µg/mL (≈ 1.06 µM), an IC50 ([2]; FCR3, read-out: Antimalarial Activity FCR3, IC50) of 0.035 µg/mL (≈ 0.109 µM) and an IC50 ([3]; normal human embryonic lung fibroblast) greater than 25.8 µg/mL.

With psammaplysin F [Psammaplysin F (3)] the “Antimalarial Activity K1, IC50” value ([1]; drug-resistant P. falciparum strain K1, in vitro) was 3.77 µg/mL, the “Antimalarial Activity FCR3, IC50” value ([2]; drug-sensitive P. falciparum strain FCR3, in vitro) was 2.45 µg/mL and the “Cytotoxicity MRC-5, IC50” value [4] was 12.65 µg/mL.
